Reference: patent US6780883B2, “Amide inhibitors of microsomal triglyceride transfer protein” (Warner-Lambert Company, priority 1998, dated 2004)
pIC50: −log10 of the molar value.

Tests used:
[1] = biological target: apolipoprotein(a), [apo(a)], apolipoproteinB-100, [apoB-100], coupling reaction that generates Lp(a) (Homo sapiens, UniProt P04114+P08519); test: LPABC screen: lipoprotein(a) biochemical coupling assay, Lp(a) content by ELISA; settings: recombinant apo(a) 17-kringle (293 cell media) + HepG2 conditioned media, 67 minutes, 37° C., 0.3 to 50 μM compound; read-out: Lp ABC IC50
Procedure, shortened: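 Conditioned medium from 293 cells stably expressing 17-kringle apo(a), diluted 1:3 in PBS and prewarmed 10 min at 37 °C, mixed with compound (added as 0.3–50 μM PBS solution) then 1:3-diluted HepG2 conditioned medium as apoB-100 source. Incubated 67 min at 37 °C; Lp(a) formed quantified by ELISA.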

[2] = tested on: Lp(a) production in HepG2^K17 cells; test: LPA3 screen: inhibition of Lp(a) production in transfected HepG2 cells, Lp(a) in media by ELISA; assay type: cell-based; settings: Homo sapiens, 8 hours, 0.3 to 50 μM compound, Lp(a) normalized for total protein, read-out: Lp A3 IC50
Procedure, shortened: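 HepG2 cells stably expressing apo(a) 17-kringle construct, seeded overnight, then exposed to 0.3 to 50 μM compound for 8 h at 37 °C. Lp(a) secreted into media measured by ELISA and normalized to total cellular protein.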

SMILES	pIC50 [1]	pIC50 [2]
COc1ccc(N(Cc2ccccc2-c2ccccc2)C(=O)c2ccccc2SCc2ccccc2)cc1OC [Example 137, 2-Benzylsulfanyl-N-biphenyl-2-ylmethyl-N-(3,4-dimethoxy-phenyl)-benzamide]	< 4.30	5.01
CCC[S+]([O-])c1ccccc1C(=O)N(Cc1ccccc1-c1ccccc1)c1ccc(OC)c(OC)c1 (centres unmarked) [Example 141, N-Biphenyl-2-ylmethyl-N-(3,4-dimethoxy-phenyl)-2-(propane-1-sulfinyl)-benzamide]	< 4.30	5.22
COc1ccc(N(Cc2ccccc2-c2ccccc2)C(=O)c2ccccc2[S+]([O-])C(C)C)cc1OC (centres unmarked) [Example 142, N-Biphenyl-2-ylmethyl-N-(3,4-dimethoxy-phenyl)-2-(propane-2-sulfinyl)-benzamide]	< 4.30	5.15

Continued, in another order:

pIC50 [1]	SMILES	pIC50 [2]
< 4.30	COc1ccc(N(Cc2ccccc2-c2ccccc2)C(=O)c2cccc(Sc3ccccc3)c2)cc1OC [Example 136, N-Biphenyl-2-ylmethyl-N-(3,4-dimethoxy-phenyl)-3-phenylsulfanyl-benzamide]	4.47
< 4.82	CCC[S+]([O-])c1ccccc1C(=O)N(Cc1ccccc1-c1ccccc1)c1ccc(OC)cc1 (centres unmarked) [Example 138, N-Biphenyl-2-ylmethyl-N-(4-methoxy-phenyl)-2-(propane-1-sulfinyl)-benzamide]	5.15
< 4.82	COc1ccc(N(Cc2ccccc2-c2ccccc2)C(=O)c2ccccc2[S+]([O-])C(C)C)cc1 (centres unmarked) [Example 139, N-Biphenyl-2-ylmethyl-N-(4-methoxy-phenyl)-2-(propane-2-sulfinyl)-benzamide]	5.46
< 4.82	O=C(c1ccccc1[S+]([O-])c1ccccc1)N(Cc1ccccc1-c1ccccc1)c1ccc(Cl)cc1 (centres unmarked) [Example 140, 2-Benzenesulfinyl-N-biphenyl-2-ylmethyl-N-(4-chloro-phenyl)-benzamide]	4.60
